According to patent EP1247803A2, “Indolinone compounds suitable for modulation of protein kinases” (Sugen, Inc., priority 1996, dated 1998):

Columns and labels:
PDGF-R = PDGF-R (Homo sapiens, UniProt P09619); experiment: PDGF-R ELISA; type: cell-based
Excerpt: A PDGF-R ELISA is described in International Patent Publication No. WO 96/40116, published December 19, 1996 by Tang et al.

MET = MET biochemical kinase assay; design: species or system human; concentration or dose not given beside the values
Method in brief: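 Colorimetric signal from an HRP-linked anti-phosphotyrosine antibody with TMB measures phosphate incorporated into immobilised MET. The receptor is pulled from lysates by a polyclonal antibody against its cytoplasmic domain, then reacts in ATP- and metal-containing buffer with test compound.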

EGFR = target: T1, EGFR (Homo sapiens, UniProt P00533); experiment: EGFR ELISA assay (in vitro kinase activity, EGFR captured from A431 cell lysate); type: biochemical; design: concentration or dose not given beside the values
T1 construct: Add 7 ug A431 cell lysate per well (EGFR source); endogenous in cells; host or cells: A431
T1 sequence (P00533 25-1210): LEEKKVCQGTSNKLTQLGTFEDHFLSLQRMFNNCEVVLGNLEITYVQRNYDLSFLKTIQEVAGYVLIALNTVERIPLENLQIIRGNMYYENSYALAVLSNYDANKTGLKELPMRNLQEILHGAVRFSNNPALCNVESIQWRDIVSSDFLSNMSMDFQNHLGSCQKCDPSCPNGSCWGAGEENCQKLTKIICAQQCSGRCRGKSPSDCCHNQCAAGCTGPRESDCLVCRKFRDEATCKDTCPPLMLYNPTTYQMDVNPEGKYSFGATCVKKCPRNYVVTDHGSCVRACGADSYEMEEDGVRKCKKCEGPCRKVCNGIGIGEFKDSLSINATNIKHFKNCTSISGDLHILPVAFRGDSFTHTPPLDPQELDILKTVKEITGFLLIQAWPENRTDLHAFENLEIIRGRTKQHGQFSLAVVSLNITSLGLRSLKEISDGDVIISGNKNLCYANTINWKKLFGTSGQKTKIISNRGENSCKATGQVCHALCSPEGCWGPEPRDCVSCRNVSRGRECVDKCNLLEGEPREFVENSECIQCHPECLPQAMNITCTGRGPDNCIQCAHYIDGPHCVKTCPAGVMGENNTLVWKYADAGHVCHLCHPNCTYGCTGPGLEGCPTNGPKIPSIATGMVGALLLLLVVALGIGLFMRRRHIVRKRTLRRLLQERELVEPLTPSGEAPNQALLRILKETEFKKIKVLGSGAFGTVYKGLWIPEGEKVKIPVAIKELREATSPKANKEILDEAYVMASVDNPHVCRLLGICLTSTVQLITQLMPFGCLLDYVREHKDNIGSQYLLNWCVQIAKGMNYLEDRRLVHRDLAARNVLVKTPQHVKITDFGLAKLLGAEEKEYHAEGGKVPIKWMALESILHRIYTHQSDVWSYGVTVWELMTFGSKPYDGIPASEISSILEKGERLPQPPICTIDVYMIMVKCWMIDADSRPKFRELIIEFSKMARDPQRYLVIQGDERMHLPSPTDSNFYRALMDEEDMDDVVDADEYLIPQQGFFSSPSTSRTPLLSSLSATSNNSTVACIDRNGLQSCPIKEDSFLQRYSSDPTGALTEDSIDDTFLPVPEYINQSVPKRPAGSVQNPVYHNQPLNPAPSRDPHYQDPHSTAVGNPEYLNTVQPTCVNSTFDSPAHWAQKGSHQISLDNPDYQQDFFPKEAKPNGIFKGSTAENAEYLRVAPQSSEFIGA
Method in brief: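 Receptor autophosphorylation was read by ELISA: anti-phosphotyrosine serum and an HRP-linked secondary with ABTS substrate, absorbance at 410 nm (reference 630 nm). The reaction ran 5 min with 3 µM ATP and 5 mM MnCl2 and was quenched by 20 mM EDTA. Compounds were first incubated 30 min with antibody-captured EGFR from A431 cell lysate.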

Chain of PDGF-R (P09619 33-1106, species assumed): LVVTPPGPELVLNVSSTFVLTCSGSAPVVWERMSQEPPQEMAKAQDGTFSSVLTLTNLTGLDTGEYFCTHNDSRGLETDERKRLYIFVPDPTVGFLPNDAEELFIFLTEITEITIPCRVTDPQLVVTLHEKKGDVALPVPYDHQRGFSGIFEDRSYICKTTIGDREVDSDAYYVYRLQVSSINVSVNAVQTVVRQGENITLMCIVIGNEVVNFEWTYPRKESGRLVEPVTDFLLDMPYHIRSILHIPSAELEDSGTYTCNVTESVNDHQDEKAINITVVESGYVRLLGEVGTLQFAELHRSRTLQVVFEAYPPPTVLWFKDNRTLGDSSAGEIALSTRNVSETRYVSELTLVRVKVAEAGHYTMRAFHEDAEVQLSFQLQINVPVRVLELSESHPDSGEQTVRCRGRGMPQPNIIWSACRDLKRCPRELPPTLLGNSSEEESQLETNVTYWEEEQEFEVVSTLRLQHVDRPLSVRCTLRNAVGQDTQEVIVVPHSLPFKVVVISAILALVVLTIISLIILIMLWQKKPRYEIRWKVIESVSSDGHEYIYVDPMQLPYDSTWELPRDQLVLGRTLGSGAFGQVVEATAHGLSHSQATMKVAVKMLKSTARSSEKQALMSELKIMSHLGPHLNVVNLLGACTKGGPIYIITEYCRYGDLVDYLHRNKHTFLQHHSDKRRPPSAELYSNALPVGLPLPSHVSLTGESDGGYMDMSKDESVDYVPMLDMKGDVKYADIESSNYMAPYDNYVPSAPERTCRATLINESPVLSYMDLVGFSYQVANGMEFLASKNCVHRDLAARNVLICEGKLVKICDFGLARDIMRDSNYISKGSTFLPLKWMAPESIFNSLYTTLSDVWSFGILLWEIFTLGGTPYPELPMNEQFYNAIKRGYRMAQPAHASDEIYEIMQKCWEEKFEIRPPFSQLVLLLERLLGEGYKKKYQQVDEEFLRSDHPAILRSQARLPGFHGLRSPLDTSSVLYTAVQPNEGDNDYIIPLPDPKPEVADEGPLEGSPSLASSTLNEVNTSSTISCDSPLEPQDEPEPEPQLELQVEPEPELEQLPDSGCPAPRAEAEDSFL

SMILES | PDGF Kinase %Inhibition (PDGF-R) | Met Kinase % Inhibition (MET) [%] | Biochem EGFR %Inhibition (EGFR) [%]
CCN(CC)c1ccc(C=C2C(=O)Nc3ccc(CCCl)cc32)cc1 [10727/G02] | -20.5% | 81.5 | 37.5
O=C1Nc2c(Br)cc(Br)cc2C1=Cc1cc(C(F)(F)F)ccc1F [10728/A08] | 0.5% | 40.2 | 24.1
COc1cccc(C=C2C(=O)Nc3ccc(S(=O)(=O)Nc4ccc(C(F)(F)F)cc4)cc32)c1OC [10727/E11] | 7.9% | -5.4 | -33.4
Cc1c(Br)ccc2c1C(=Cc1ccc3c(c1)Cc1ccccc1-3)C(=O)N2 [10728/C06] | 2.7% | 22.9 | 4.2
COc1ccc(OC)c(C=C2C(=O)Nc3ccc(Br)c(C)c32)c1 [10728/C02] | 42.3% | 15.5 | -35.4
COc1cc(C=C2C(=O)Nc3ccc(I)cc32)cc2c1OCO2 [10728/B11] | -12.4% | 80.3 | 48.2
COc1cccc(OC)c1C=C1C(=O)Nc2ccc(I)cc21 [10728/B03] | 10.3% | 74.4 | -36.6
CNS(=O)(=O)c1ccc2c(c1)C(=Cc1ccccc1Sc1ccc(Cl)cc1)C(=O)N2 [10727/D05] | -0.1% | 39.9 | 3.4
COc1cc(N(C)C)ccc1C=C1C(=O)Nc2ccc(I)cc21 [10728/B05] | 9.4% | 60.4 | 26.9
O=C1Nc2ccc(S(=O)(=O)Nc3ccc(C(F)(F)F)cc3)cc2C1=Cc1cc(Cl)cc(Br)c1O [10727/E04] | -7.4% | 98.4 | 82.1
COc1cc(C=C2C(=O)Nc3ccc(I)cc32)cc(OC)c1 [10728/B04] | 9.8% | 67.2 | -2.0
CNS(=O)(=O)c1ccc2c(c1)C(=Cc1cc(OC)ccc1OC)C(=O)N2 [10728/D02] | 9.8% | 21.4 | 9.9
O=C1Nc2ccc(CCCl)cc2C1=Cc1coc2ccccc2c1=O [10727/G07] | -24.1% | 29.6 | 5.4
Cc1c(Br)ccc2c1C(=Cc1ccccc1OCC(=O)O)C(=O)N2 [10728/C10] | 11.2% | 28.7 | 4.4
O=C1Nc2ccc(CCCl)cc2C1=Cc1cc(O)ccc1O [10727/G10] | 10.8% | 99.2 | 85.1
N#Cc1cccc(C=C2C(=O)Nc3ccc(CCCl)cc32)c1 [10727/G08] | -7.4% | 21.8 | -19.6

SMILES | PDGF Kinase %Inhibition (PDGF-R) | Met Kinase % Inhibition (MET) [%] | Biochem EGFR %Inhibition (EGFR) [%]
CNS(=O)(=O)c1ccc2c(c1)C(=Cc1cccc(C#N)c1)C(=O)N2 [10727/D08] | 5.0 ! % | 8.5 | -0.5
COc1cc(C=C2C(=O)Nc3c(Br)cc(Br)cc32)cc(OC)c1 [10728/A04] | 15.6% | 28.5 | 28.0
O=C1Nc2ccc(S(=O)(=O)Nc3ccc(C(F)(F)F)cc3)cc2C1=Cc1ccccc1Sc1ccc(Cl)cc1 [10727/E05] | -7.4% | 12.1 | 12.9
CCN(CC)c1ccc(C=C2C(=O)Nc3ccc(S(=O)(=O)Nc4ccc(C(F)(F)F)cc4)cc32)cc1 [10727/E02] | -6.7% | 28.0 | 22.4
O=C1Nc2ccc(S(=O)(=O)Nc3ccc(C(F)(F)F)cc3)cc2C1=Cc1cc(O)ccc1O [10727/E10] | 5.0% | 96.6 | 85.1
N#Cc1ccc(C=C2C(=O)Nc3ccc(CCCl)cc32)cc1 [10727/G09] | 10.8% | 18.8 | -9.7
Cc1c(Br)ccc2c1C(=Cc1cc(C(F)(F)F)ccc1F)C(=O)N2 [10728/C08] | 9.4% | 25.5 | 17.5
O=C1Nc2ccc(S(=O)(=O)Nc3ccc(C(F)(F)F)cc3)cc2C1=Cc1cc2c(cc1Cl)OCO2 [10727/E06] | 9.4% | -2.2 | -9.3
COc1cccc(OC)c1C=C1C(=O)Nc2c(Br)cc(Br)cc21 [10728/A03] | -7.9% | 29.2 | -25.8
O=C1Nc2ccc(S(=O)(=O)N3CCOCC3)cc2C1=Cc1cc2c(cc1Cl)OCO2 [10727/F06] | 8.6% | 37.7 | 4.9
CNS(=O)(=O)c1ccc2c(c1)C(=Cc1ccc3c(c1)Cc1ccccc1-3)C(=O)N2 [10728/D06] | 5.8% | 23.2 | 5.8
O=C1Nc2ccc(S(=O)(=O)N3CCOCC3)cc2C1=Cc1ccccc1Sc1ccc(Cl)cc1 [10727/F05] | -3.7% | 6.0 | -9.1
N#Cc1cccc(C=C2C(=O)Nc3ccc(S(=O)(=O)N4CCOCC4)cc32)c1 [10727/F08] | 10.1% | 36.9 | -5.4
COc1cc(C=C2C(=O)Nc3ccc(Br)c(C)c32)cc2c1OCO2 [10728/C11] | 8.5% | 45.2 | 21.8
Cc1c(Br)ccc2c1C(=Cc1cccc(C(F)(F)F)c1F)C(=O)N2 [10728/C07] | 8.9% | 46.3 | 8.3
